In PMC9033620 (RSC Advances, 2021):

Molecular target: β-tubulin (Sus scrofa, UniProt P02554+Q2XVP4)
Experiment: X-ray crystal structure
Assay type: binding

β-tubulin, sequence (Q2XVP4 whole entry): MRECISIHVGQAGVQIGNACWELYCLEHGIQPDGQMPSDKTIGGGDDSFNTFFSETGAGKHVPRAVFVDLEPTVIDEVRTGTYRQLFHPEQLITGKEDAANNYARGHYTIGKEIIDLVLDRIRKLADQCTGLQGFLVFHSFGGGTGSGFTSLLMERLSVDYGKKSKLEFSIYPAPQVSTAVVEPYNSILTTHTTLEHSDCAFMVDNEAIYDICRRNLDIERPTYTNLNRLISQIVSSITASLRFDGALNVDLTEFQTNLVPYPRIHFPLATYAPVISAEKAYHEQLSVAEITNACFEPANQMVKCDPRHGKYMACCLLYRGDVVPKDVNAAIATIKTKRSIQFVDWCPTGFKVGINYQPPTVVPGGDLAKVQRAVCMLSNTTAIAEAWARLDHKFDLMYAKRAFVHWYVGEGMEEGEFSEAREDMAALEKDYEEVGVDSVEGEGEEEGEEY
β-tubulin, sequence (P02554 whole entry): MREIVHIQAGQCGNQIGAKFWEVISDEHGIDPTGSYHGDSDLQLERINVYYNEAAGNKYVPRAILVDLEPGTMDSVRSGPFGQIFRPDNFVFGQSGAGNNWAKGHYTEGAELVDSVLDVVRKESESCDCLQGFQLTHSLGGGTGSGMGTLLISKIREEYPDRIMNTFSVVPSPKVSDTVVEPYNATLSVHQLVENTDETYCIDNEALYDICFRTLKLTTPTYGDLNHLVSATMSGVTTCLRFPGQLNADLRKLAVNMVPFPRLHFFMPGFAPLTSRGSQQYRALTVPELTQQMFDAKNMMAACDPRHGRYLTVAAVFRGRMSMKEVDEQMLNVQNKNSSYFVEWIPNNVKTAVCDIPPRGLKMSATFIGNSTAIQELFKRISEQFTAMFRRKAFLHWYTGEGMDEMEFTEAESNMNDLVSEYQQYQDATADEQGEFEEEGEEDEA

CCCCc1ccc2[nH]c(NC(=O)OC)nc2c1 [parbendazole]
Kd: 3.39 µM
